This note sets out measurements from patent publication US20040131619A1, “Thymic atrophy” (DUKE UNIVERSITY, priority 2002, published 2004).

The subject of test [1] is BALB/c mice. The test can be described thus: LIF-induced acute thymic atrophy (metyrapone pre-treatment, adrenalectomy). In kind it is in vivo. The following applies: metyrapone 30 mg/kg IP 24 hours before LIF for 3 days; P<0.0094. The protocol:
Normal and adrenalectomized female BALB/c mice (6-8 week) were purchased from The Jackson Laboratory (Bar Harbor, Me.). Animals were housed in specific pathogen free conditions in the Duke University Vivarium Barrier (Durham, N.C.). Mouse handling and experimental procedures were conducted in accordance with AALAC and the Duke University IACUC guidelines for animal care and use.
Animals were treated with either E. coli LPS (Sigma, L2880, St. Louis, Mo.), recombinant murine LIF (R&D Systems, Minneapolis, Minn.), goat IgG (Sigma) or anti-mouse LIF polyclonal goat IgG (R&D Systems) and metyrapone (Sigma). Mouse thymus tissue was excised following euthanasia. Half of each thymus was snap frozen in a dry ice/ETOH bath and stored in liquid nitrogen for RNA extraction and the other half was teased into a single-cell suspension as previously described (Sempowski et al, Journal of Immunology 164:2180 (2000)). […]
Normal and bilaterally adrenalectomized BALB/c mice were treated with LIF (3 μg, 3× a day) or saline for 3 days, and the degree of thymic atrophy assessed. […] To evaluate the status of LIF mRNA in the thymus of LIF injected mice, thymus LIF mRNA levels were determined in control and LIF-treated mice. […]

Test [2] relates to CD3+, CD4/CD8 DP thymocytes. The test can be described thus: Murine fetal thymic organ culture (FTOC). It counts as cell-based, mouse. The protocol: Phenotypic analysis of thymocyte suspensions was performed on a FACSVantage SE (Becton Dickinson) using fluorescein isothiocyanate-CD3, phycoerythrin-CD4, and phycoerythrin cychrome 5-CD8 (Pharmingen) as previously described (Sempowski et al, Journal of Immunology 164:2180 (2000)). Annexin V-FITC/propidium iodide (PI) staining was used to determine thymocyte apoptosis, necrosis and viability (Coulter).
FTOC were established following the methods described by Vacchio et al. (Journal of Experimental Medicine 185:2033 (1997)). Briefly, thymic lobes were removed from 17 day gestation fetal mice and were cultured in 6-well plates on Gelfoam (Pharmacia & Upjohn, Kalamazoo, Mich.) rafts. Cultures (2-4 lobes/well) were treated with murine LIF (R&D Systems) with or without metyrapone and then harvested by disruption against a 70 μm cell strainer (Becton Dickinson) with a 1 cc plunger (Becton Dickinson). Total thymocyte number per lobe was determined by hemacytometer count with trypan dye exclusion.
To directly determine if LIF can induce intrathymic corticosteroid production and thymocyte depletion, 17 day fetal thymic lobes in FTOC were treated with LIF (10 ng/ml) in the presence or absence of metyrapone (FIG. 4). Absolute numbers of CD3^+, CD4/CD8 DP thymocytes were quantitated as a measure of in vitro LIF-induced thymic atrophy after 72 hours. […]

In the case of `CC(C)(C(=O)c1cccnc1)c1cccnc1` [Metyrapone, metyrapone], the “inhibition of LIF-induced acute thymic atrophy” value in test [1] is on record as 43%. Besides, the “depletion of DP thymocytes” value in test [2] (FTOC, 72 hours, agent alone (LIF 10 ng/ml; metyrapone alone), P<0.05) turned out to be 8%. For the same compound, the “LIF-induced depletion of DP thymocytes” value in test [2] (metyrapone added to LIF-treated (10 ng/ml) FTOC) is recorded as “prevented”.
